System: BBB of C57BL/6 mice
Assay: Delivery of functional molecules to the brain after BBB transient opening
Assay type: in vivo, mouse
Settings: after TJ-targeting AuNP and ps laser (25 mJ/cm^2, 1 pulse)
Protocol: To measure the penetration of functional molecule, the anti-cancer drug, doxorubicin, and antibody (human IgG) instead of Evans blue dye were inject intravenously. To test endogenous mouse IgG extravasation, the secondary antibody was incubated with mouse brain tissue sections, followed by fluorescent signal detection.

- crossing of the BBB (extravasation into brain): obvious Dox across the BBB
SMILES: COc1cccc2c1C(=O)c1c(O)c3c(c(O)c1C2=O)C[C@@](O)(C(=O)CO)C[C@@H]3O[C@H]1C[C@H](N)[C@H](O)[C@H](C)O1 [Dox, doxorubicin]

Reference: patent US20210252151A1, “METHOD FOR OPTICAL OPENING OF THE BLOOD-BRAIN BARRIER” (BOARD OF REGENTS, THE UNIVERSITY OF TEXAS SYSTEM, priority 2018, published 2021)
